Laboratory results taken from ChEMBL document CHEMBL4689842, “EUbOPEN Chemogenomics Library wave 1” (2021).

Key:
Type in all cases: toxicity, cell-based
[1] = system: HEK-293T; assay: Incucyte cell viability with HEK293T; settings: human, 10 µM, compound concentration 10 uM
[2] = system: Fibroblast; assay: Incucyte cell viability with human fibroblast; settings: 10 µM, compound concentration 10 uM
[3] = system: U2OS; assay: Incucyte cell viability with U2OS; settings: human, 10 µM, compound concentration 10 uM
[4] = 0 h, replicate number 1, timepoint 0 hours
[5] = 6 h, replicate number 1, timepoint 6 hours
[6] = 12 h, replicate number 1, timepoint 12 hours
[7] = 18 h, replicate number 1, timepoint 18 hours
[8] = 24 h, replicate number 1, timepoint 24 hours
[9] = 12 h, replicate number 2, timepoint 12 hours
[10] = 0 h, replicate number 2, timepoint 0 hours
[11] = 24 h, replicate number 2, timepoint 24 hours
[12] = 18 h, replicate number 2, timepoint 18 hours
[13] = 6 h, replicate number 2, timepoint 6 hours
Also: filed as whole numbers so only -1 and 0 and 1 occur.

Compound	Growth Rate [1, 4]	Growth Rate [1, 5]	Growth Rate [1, 6]	Growth Rate [1, 7]	Growth Rate [1, 8]	Growth Rate [2, 4]	Growth Rate [2, 5]	Growth Rate [2, 6]	Growth Rate [2, 9]	Growth Rate [2, 7]	Growth Rate [2, 8]	Growth Rate [3, 4]	Growth Rate [3, 10]	Growth Rate [3, 5]	Growth Rate [3, 6]	Growth Rate [3, 7]	Growth Rate [3, 8]	Growth Rate [1, 10]	Growth Rate [3, 12]	Growth Rate [3, 13]	also measured
CO[C@@H](C)c1c(Nc2ccc([C@@H](N(C)C(=O)C3CCS(=O)(=O)CC3)C(F)(F)F)cc2)cnc2cc(Cl)nn12 [NVS-MALT1-C]	1	0	0	0	0	0	0	1	0	1	1	0	1	0	1	0	1	–	–	–	Growth Rate [3, 11]: 0
Cc1ccc(-c2cnc([C@@]3(O)CC[C@H](C(=O)O)C(C)(C)C3)s2)cc1Nc1cccc(C(F)(F)F)n1 [MRL-SYKi-NC]	0	0	1	1	1	–	0	0	–	0	0	0	–	0	0	0	0	1	1	–	Growth Rate [1, 9]: 0; Growth Rate [1, 11]: 0; Growth Rate [2, 10]: 0; Growth Rate [3, 9]: 1; Growth Rate [3, 11]: 1
CNC[C@H](O)c1cccc(O)c1 [PHENYLEPHRINE]	0	0	0	0	1	1	–	1	–	–	–	–	0	–	1	1	1	–	–	0	Growth Rate [1, 11]: 0; Growth Rate [2, 10]: 0; Growth Rate [2, 12]: 1
Cc1cc([C@@H](C)Nc2cccc(-c3cc(C)c(C(=O)N[C@@H](C)C(=O)O)c(C)c3)c2)ccc1Cl	1	0	0	0	0	0	1	1	0	1	0	0	1	–	1	0	1	0	1	0	Growth Rate [2, 13]: 0
CC[C@@H]1CN2C(=O)N(C)c3nc(-c4ccccc4)[nH]c3C2=N1.Cl	1	1	1	1	1	0	–	1	0	1	1	–	0	–	–	1	1	0	–	1	Growth Rate [3, 9]: 0
CC(=O)c1c(NS(C)(=O)=O)c2cc(-c3ccc(Cl)cc3)c(-c3ccc(Cl)cc3Cl)nc2n(C)c1=O [MRL-CB1-NC]	1	0	0	0	0	0	0	0	–	0	0	0	1	–	1	1	1	0	–	1	Growth Rate [1, 9]: 1
C=CC(=O)Nc1ccc2[nH]c(=O)n(C3CCN(C(=O)c4ccc(-c5nc6cc[nH]c(=O)c6cc5-c5ccccc5)cc4)CC3)c2c1	0	–	–	–	–	0	–	1	–	1	1	–	0	1	1	1	1	–	–	–	Growth Rate [1, 11]: 1
FC(F)(F)c1cccc(-c2noc(-c3cc(-c4ccccc4)c(C(F)(F)F)s3)n2)c1	1	0	0	0	0	0	–	1	–	1	1	1	0	1	1	1	1	0	0	–	Growth Rate [2, 13]: 0; Growth Rate [2, 11]: 0; Growth Rate [3, 9]: 0
CC(C)c1onc(-c2c(Cl)cccc2Cl)c1COc1ccc(/C=C/c2cccc(C(=O)O)c2)c(Cl)c1	0	1	0	0	0	0	1	1	–	0	0	0	–	–	1	1	1	–	–	–	Growth Rate [1, 9]: 1; Growth Rate [2, 10]: 1; Growth Rate [2, 12]: 1; Growth Rate [2, 11]: 1
CN(C)C(=O)c1cc2cnc(Nc3ccc(N4CCNCC4)cn3)nc2n1C1CCCC1 [RIBOCICLIB]	0	1	–	1	1	0	–	–	0	–	1	0	–	0	0	0	0	1	1	1	Growth Rate [1, 13]: 0; Growth Rate [1, 9]: 0; Growth Rate [1, 12]: 0; Growth Rate [1, 11]: 0; Growth Rate [2, 13]: 0; Growth Rate [2, 12]: 1; Growth Rate [3, 9]: 1; Growth Rate [3, 11]: 1
CC1(C)CCC(C)(C)c2cc(NC(=O)c3ccc(C(=O)O)cc3)ccc21 [TAMIBAROTENE]	0	1	1	1	1	0	0	0	1	0	1	0	–	–	0	0	1	–	1	–	Growth Rate [3, 9]: 1
C[C@@H]1CN(c2cc(-c3n[nH]c4ccc(OC5(C)CC5)cc34)ncn2)C[C@H](C)O1 [MLi-2]	0	0	1	1	1	0	1	1	0	1	0	–	0	1	1	1	1	1	–	–	Growth Rate [1, 11]: 0; Growth Rate [2, 13]: 0; Growth Rate [2, 12]: 0
Cl.O=C(O)Cc1cccc(OCCCN(Cc2cccc(C(F)(F)F)c2Cl)CC(c2ccccc2)c2ccccc2)c1	0	1	1	0	0	0	1	1	0	1	0	0	–	–	0	0	1	–	1	0	Growth Rate [1, 9]: 0; Growth Rate [2, 13]: 0; Growth Rate [2, 12]: 0
O=C1NCN(c2ccccc2)C12CCN(CC1COc3ccccc3O1)CC2 (stereo not drawn) [SPIROXATRINE]	1	0	0	0	0	0	1	1	0	0	1	–	0	–	1	1	1	0	–	1	Growth Rate [2, 10]: 1; Growth Rate [2, 13]: 0; Growth Rate [2, 11]: 0
Cl.O=C([C@@H](Cc1cccc(C(F)(F)F)c1)NS(=O)(=O)c1cc(F)c2c(c1)CCNC2)N1CCCC1	0	–	–	–	–	–	–	1	–	–	1	0	–	0	1	0	1	1	1	1	Growth Rate [1, 13]: 1; Growth Rate [1, 9]: 1; Growth Rate [1, 11]: 1; Growth Rate [2, 10]: 1; Growth Rate [2, 12]: 1
